According to US20080008745A1, “Transdermal delivery of naltrexone hydrochloride, naltrexol hydrochloride, and bis(hydroxy-methyl)propionyl-3-0 ester naltrexone using microneedles” (UNIVERSITY OF KENTUCKY RESEARCH FOUNDATION, priority 2006, published 2008):
In brackets after ≈: the same amount, converted by molar mass. Structures can show the parent of a compound that is named as a salt. Where two headings read alike, the source gives them in different places.

Key:
[1] = In vitro skin diffusion study, flow-through diffusion cell, human skin; type: in vitro ADME; conditions: for Papp at 48 h: human; for Lag time / NTX Flux: Human skin
[2] = In vitro skin diffusion study, flow-through diffusion cell, guinea pig skin
Method: Hairless guinea pig skin was harvested from euthanitized animals. Animal studies were approved by the University of Kentucky IACUC. Human skin harvested during abdominoplasty was used for the diffusion studies. Human tissue use was approved by the University of Kentucky Institutional Review Board. Skin sections were obtained by removing the subcutaneous fatty tissue by scalpel dissection and stored at −20° C. A PermeGear flow-through (In-Line, Riegelsville, Pa.) diffusion cell system was used for the skin permeation studies. Skin used for microneedle treatment was placed on a wafer of polydimethylsiloxane polymer, which mimicked the underlying resistance of tissue. The skin was poked 20 times with an array containing 5 MN before mounting the skin in the diffusion cell. Untreated skin samples were simply placed in the diffusion cells. Diffusion cells were kept at 32° C. with a circulating water bath. Data was collected by using skin from a single donor with three cells for untreated formulations and three to four cells for the MN treated formulations. The receiver solution was HEPES-buffered Hanks' balanced salts with gentamicin at pH 7.4, and the flow rate was adjusted to 1.1 mL/h. Each cell was charged with 0.25 mL of the respective drug solution. […] All samples were stored at 4° C. until processed by solid phase extraction.
The cumulative quantity of drug collected in the receiver compartment was plotted as a function of time. The flux value for a given experiment was obtained from the slope of the steady state portion of the cumulative amount of drug permeated, plotted over time. Apparent permeability coefficient values were calculated from Fick's First Law of diffusion: [formula]
Sink conditions were maintained in the receiver solution for the duration of the experiment, so ΔC was approximated by the drug concentration in the donor compartment.
The HPLC analysis was performed as described by Vaddi et al., Pharm. Res. 22 (2005) 758-765. The HPLC system consisted of a Waters 717plus autosampler, a Waters 1525 Binary HPLC pump, and a Waters 2487 Dual λ Absorbance detector with Waters Breeze software. A Brownlee C-18 reversed-phase Spheri-5 μm column (220×4.6 mm) with a C-18 reversed phase 7 μm guard column (15×3.2 mm) was used with the UV detector set at a wavelength of 215 nm. […] The mobile phase for Naltrexol consisted of 90:10 ACN:0.1% TFA adjusted to pH 3.0 with TEA. Samples were run for 10 min at 1 mL/min as described by Paudel et al., J. Pharm. Sci. 94 (2005) 1965-1975). One hundred microliters of sample was injected onto the column for both Naltrexone and Naltrexol. Samples were analyzed within the linear range of the standard curves.
The drugs were extracted from the buffer samples by solid phase extraction (30mg 1 cc Oasis® HLB, Waters Corp., Milford, Mass.) as described by Vaddi et al., Pharm. Res. 22 (2005) 758-765.
Before extracting the aqueous drug samples (5 mL), the cartridge was conditioned with 1 mL of methanol and 1 mL of nanopure water. After sample loading, the cartridge was washed with 1 mL of 5% methanol and the drug was eluted with ACN and analyzed by HPLC. A similar extraction method was employed for Naltrexol, except 2 mL of methanol was used in conditioning and 1 mL of nanopure water was also used to further wash the samples after being loaded onto the cartridge. The Naltrexol was eluted with 2 mL of isopropanol and finally with 1 mL ACN. Naltrexol samples were evaporated under nitrogen in a water bath maintained at 37° C. The samples were then reconstituted with 1 mL of ACN for HPLC analysis. Highly concentrated samples of Naltrexone and Naltrexol were further diluted 10 times in ACN.
The data obtained from the diffusion experiments were plotted as the cumulative amount of drug collected in the receiver compartment as a function of time.

[3] = human skin, passive diffusion without MN (Paudel et al.); cited from earlier work
[4] = Solubility in 3:1 PG:Hanks' buffer; type: physicochemical; conditions: for Solubility in 3:1 PG:Hanks Buffer: 32° C., 24 h
Method: An excess of Naltrexone HCl (˜350 mg) was added to 1 mL of 3:1 PG:Hanks' buffer. The saturated solution was then vortexed for 1 min, sonicated for 15 min, and placed in an incubator at 32° C. for 24 h while shaking on a belly shaker. Just before filtering, a glass syringe and 0.45 μm filter were heated in an incubator to 32° C. The solution was filtered and diluted with ACN for high pressure liquid chromatography (HPLC) analysis.

[5] = Solubility or concentration of Naltrexol base in 3:1 H2O:PG after pH adjustment; type: physicochemical; conditions: for Concentration in 3:1 H2O:PG: concentration of drug in solution, freely soluble in the ionized form; for Solubility in 3:1 H2O:PG: pH adjusted
Method: 100 mg of Naltrexol base was prepared in 3:1 H2O:PG. The solution was briefly vortexed and sonicated for 10 min. To obtain a mixture of pH 8.5 Naltrexol base, 0.5 N sodium hydroxide was added incrementally. The same procedure was performed to obtain a pH 4.5 solution, except 0.5 M HCl was added dropwise. […] The solution was saturated with excess solid when the pH was raised above the first pKa (7.4) of Naltrexol base.

[6] = cited from earlier work
[7] = In vivo pharmacokinetics in hairless guinea pigs, gel with or without microneedles; design: species or system hairless guinea pig
Method: In vivo studies of hairless guinea pigs were performed in order to obtain pharmacokinetic parameters for guinea pigs treated with 26 mg Naltrexol base gel, MN application followed by 26 mg Naltrexol base gel, 285 mg Naltrexol HCl gel and MN application followed by 285 mg Naltrexol HCl. The base was saturated in gel whereas the hydrochloride salt remained soluble in solution.

[8] = No MN GP skin, listed as Naltrexone base
[9] = MN Treated GP skin, 100 mg/ml Naltrexone base equivalent in 3:1 PG:water, 48 hours
[10] = GP skin, MN Treated, High Dose, listed as Naltrexol pH 4.5
[11] = GP skin, No MN, High Dose, 3:1 H2O:PG
[12] = MN application followed by gel (26 mg base or 285 mg HCl)
[13] = no MN, gel (26 mg Naltrexol base or 285 mg Naltrexol HCl)

O=C1CC[C@@]2(O)[C@H]3Cc4ccc(O)c5c4[C@@]2(CCN3CC2CC2)[C@H]1O5 [NTX Base, Naltrexone]
Maximum daily dose ([1]; 10 cm^2 patch, passive diffusion without MN, at solubility limit): 0.4 mg
Papp at 48 h ([1]; pH 7.4, microneedle-treated human skin, read-out: Permeability Kp (estimated) (converted)): 0.0194 ×10⁻⁶ cm/s
Lag time ([2]; MN GP skin): 18.91 ± 4.49 h
NTX Flux ([2]; MN GP skin, 3:1 PG:Hanks' buffer): 11.80 ± 5.02 nmol/cm^2/h
NTX Flux ([2]; MN GP skin, 3:1 PG:Hanks' buffer, listed as Naltrexone base): 11.80±5.02 nmol/cm^2/h
Lag time ([2]; MN GP skin, listed as Naltrexone base): 18.91 ± 4.49 h
Lag time ([2]; No MN GP skin): 21.22 ± 3.91 h
NTX Flux ([2]; No MN GP skin): 9.94 ± 2.75 nmol/cm^2/h
Lag time [2, 8]: 21.22 ± 3.91 h
NTX Flux [2, 8]: 9.94±2.75 nmol/cm^2/h
Permeability [3]: 0.03 ×10⁻⁶ cm/s
solubility at 24 h ([4]; 3:1 PG:Hanks' buffer, 32 °C, aqueous with cosolvent or surfactant or cyclodextrin, thermodynamic from solid, Eq. 2, read-out: Solubility S used for theoretical dosing): 300 mg/mL (≈ 879 mM)
Solubility in 3:1 PG:Hanks Buffer ([4]; listed as Naltrexone base): 43.6 mM (≈ 14900 µg/mL)

CC(CO)(CO)C(=O)Oc1ccc2c3c1OC1C(=O)CCC4(O)C(C2)N(CC2CC2)CCC314 (centres unmarked) [NTX-Diol ester, bis(hydroxymethyl)propionyl-3-O-ester naltrexone]
Flux [2, 9]: 71.98 ± 26.38 nmol/cm^2/h
Lag time [2, 9]: 10.33 ± 7.95 h
Flux level relative to Naltrexone HCl with MN treatment ([2]; MN treated GP skin): approximately twice

O=C1CC[C@@]2(O)[C@H]3Cc4ccc(O)c5c4[C@@]2(CCN3CC2CC2)[C@H]1O5 [NTX-HCl, Naltrexone Hydrochloride]
Maximum daily dose (calculated from Eq. 2) ([1]; 10 cm^2 patch, MN-treated human skin, highest concentration measured): 5.0 mg
Lag time ([1]; MN): 12.06 ± 4.32 h
NTX Flux ([1]; MN): 18.54 ± 4.38 nmol/cm^2/h
Lag time ([1]; No MN): 23.66 ± 2.74 h
NTX Flux ([1]; No MN): 2.22 ± 0.72 nmol/cm^2/h
Flux enhancement by MN treatment ([1]; human skin, MN vs untreated, p<0.05): 8 fold
Papp at 48 h ([1]; pH 7.4, Human skin, MN, read-out: Permeability (converted)): 0.0194 ×10⁻⁶ cm/s
Papp at 48 h ([1]; pH 7.4, Human skin, No MN, read-out: Permeability (converted)): 0.00233 ×10⁻⁶ cm/s
Permeability Kp (estimated) ([1]; microneedle-treated human skin): 0.0194 ×10⁻⁶ cm/s
Flux enhancement by MN treatment ([2]; GP skin, MN vs untreated): 10 fold
NTX Flux ([2]; MN GP skin, 3:1 PG:Hanks' buffer, Hydrochloride): 27.16 ± 4.57 nmol/cm^2/h
NTX Flux ([2]; MN GP skin, 3:1 PG:Hanks' buffer, listed as Naltrexone HCl, Hydrochloride): 27.16±4.57 nmol/cm^2/h
Lag time ([2]; MN GP skin, Hydrochloride): 2.41 ± 3.85 h
Lag time ([2]; MN GP skin, listed as Naltrexone HCl, Hydrochloride): 2.41 ± 3.85 h
Lag time ([2]; No MN GP skin, Hydrochloride): 22.38 ± 7.68 h
NTX Flux ([2]; No MN GP skin, Hydrochloride): 2.71 ± 1.20 nmol/cm^2/h
Lag time ([2]; No MN GP skin, listed as Naltrexone HCl, Hydrochloride): 22.38 ± 7.68 h
Solubility in 3:1 PG:Hanks Buffer ([4]; Hydrochloride): 794.4 mM

Oc1ccc2c3c1O[C@H]1[C@H](O)CC[C@@]4(O)[C@@H](C2)N(CC2CC2)CC[C@]314 [NTXOL Base pH 4.5, 6-β-Naltrexol]
Lag time ([2]; GP skin, MN Treated, High Dose): 6.58 ± 5.02 h
NTXOL Flux ([2]; GP skin, MN Treated, High Dose): 35.07 ± 8.18 nmol/cm^2/h
Lag time [2, 10]: 6.58 ± 5.02 h
NTXOL Flux [2, 10]: 35.07±8.18 nmol/cm^2/h
Lag time ([2]; GP skin, MN Treated, Low Dose): 10.33 ± 7.95 h
NTXOL Flux ([2]; GP skin, MN Treated, Low Dose): 71.98 ± 26.38 nmol/cm^2/h
Lag time ([2]; GP skin, No MN, High Dose): 25.97 ± 5.50 h
NTXOL Flux [2, 11]: 6.56 ± 6.49 nmol/cm^2/h
Lag time ([2]; GP skin, No MN, High Dose, listed as Naltrexol pH 4.5): 25.97 ± 5.50 h
Lag time ([2]; GP skin, No MN, Low Dose): 27.18 ± 1.31 h
NTXOL Flux ([2]; GP skin, No MN, Low Dose): 11.50 ± 4.20 nmol/cm^2/h
Flux enhancement relative to Naltrexone HCl ([2]; MN treated GP skin): 1.3 fold
Concentration in 3:1 H2O:PG ([5]; High Dose): **292.40 mM
Concentration in 3:1 H2O:PG ([5]; Low Dose): **76.02 mM

Oc1ccc2c3c1O[C@H]1[C@H](O)CC[C@@]4(O)[C@@H](C2)N(CC2CC2)CC[C@]314 [NTXOL Base pH 8.5, 6-β-Naltrexol]
Lag time ([2]; GP skin, MN Treated, High Dose): 17.53 ± 6.56 h
NTXOL Flux ([2]; GP skin, MN Treated, High Dose): 4.79 ± 2.62 nmol/cm^2/h
Lag time ([2]; GP skin, MN Treated, Low Dose): 15.67 ± 6.96 h
NTXOL Flux ([2]; GP skin, MN Treated, Low Dose): 15.19 ± 7.33 nmol/cm^2/h
Lag time ([2]; GP skin, No MN, High Dose): 24.34 ± 5.17 h
NTXOL Flux [2, 11]: 1.36 ± 0.91 nmol/cm^2/h
Lag time ([2]; GP skin, No MN, High Dose, listed as Naltrexol pH 8.5): 24.34 ± 5.17 h
Lag time ([2]; GP skin, No MN, Low Dose): 25.37 ± 1.10 h
NTXOL Flux ([2]; GP skin, No MN, Low Dose): 8.77 ± 4.08 nmol/cm^2/h
Solubility in 3:1 H2O:PG [5]: 2.69 mM (≈ 924 µg/mL)
Solubility in 3:1 H2O:PG ([5]; listed as Naltrexol base at pH 8.5): 2.92 mM (≈ 1000 µg/mL)

Oc1ccc2c3c1O[C@H]1[C@H](O)CC[C@@]4(O)[C@@H](C2)N(CC2CC2)CC[C@]314 [NTXOL Base, 6-β-Naltrexol]
first pKa [6]: 7.4
AUC [7, 12]: 303.1 ng·h/mL
Cmax [7, 12]: 8.5 ng/mL
Css [7, 12]: 5.04 ± 2.57 ng/mL
Tlag [7, 12]: 0.7 h
Tmax [7, 12]: 0.7 h
AUC [7, 13]: 50.5 ± 10.1 ng·h/mL
Cmax [7, 13]: 1.7 ± 0.5 ng/mL
Css [7, 13]: 0.95 ± 0.41 ng/mL
Tlag [7, 13]: 5.2 ± 1.6 h
Tmax [7, 13]: 40.1 ± 11.7 h

Cl.Oc1ccc2c3c1O[C@H]1[C@H](O)CC[C@@]4(O)[C@@H](C2)N(CC2CC2)CC[C@]314 [NTXOL HCl, Naltrexol Hydrochloride]
Flux ([2]; MN treated skin, earlier experiment): 36.12±1.77 nmol/cm^2/h
Flux ([2]; untreated skin, earlier experiment): 2.75±1.38 nmol/cm^2/h
Plasma concentrations compared to no microneedles and Naltrexol base ([7]; MN and gel therapy, FIG. 8): markedly higher
AUC [7, 12]: 1349 ± 616 ng·h/mL
Cmax [7, 12]: 48.5 ± 18.8 ng/mL
Css [7, 12]: 21.3 ± 6.9 ng/mL
Tlag [7, 12]: 0.7 ± 0.3 h
Tmax [7, 12]: 19.2 ± 11.5 h
AUC [7, 13]: 24.4 ng·h/mL
Cmax [7, 13]: 4.1 ng/mL
Css [7, 13]: 1.8 ± 1.68 ng/mL
Tlag [7, 13]: 1 h
Tmax [7, 13]: 7.0 h
